Patent US10273290B2, “Hydrocarbon double-stapled stabilized HIV-1 GP41 heptad repeat domain peptides” (DANA-FARBER CANCER INSTITUTE, INC., priority 2009, dated 2019)
Bridge positions count the residues as written; N and C are the ends. Square brackets hold non-standard residues; d marks the D form. Ends that are not written are not given here. Peptide text beside a SMILES is read from it. * marks the point of attachment. FITC = O=C1OC2(c3ccc(O)cc3Oc3cc(O)ccc32)c2ccc(NC(=S)*)cc21; S5 = C=CCCC[C@](C)(N)C(=O)O; Nle = CCCC[C@H](N)C(=O)O

How the values were obtained:
[1] = tested on: doubly-mutant HR1 peptides V38A/N42T and V38E/N42S; assay: Native PAGE complex assembly with mutant HR1 peptides; type: binding, HIV-1; conditions: for higher-order complex formation with doubly-mutant HR1 peptides: FITC-labeled peptides, native PAGE
From the text: We first performed a native PAGE-based assay designed to monitor the capacity of FITC-HR2 and mutant HR1 peptides to interact to form a stable higher-order complex (He, Y., et al. PNAS (2008)).

[2] = Circular dichroism, α-helical content; type: physicochemical
Method: The α-helicity of stapled modified polypeptides was compared to their unmodified counterparts by circular dichroism. CD spectra were obtained on an Aviv spectropolarimeter at 20° C. using the following standard measurement parameters: wavelength, 190-260 nm; step resolution, 0.5 nm; speed, 20 nm/sec; accumulations, 10; response, 1 sec; bandwidth, 1 nm; path length, 0.1 cm. The α-helical content of each peptide was calculated by dividing the mean residue ellipticity [θ]222obs, by the reported [θ]222obs for a model helical peptide (Forood, B., E. J. Feliciano, and K. P. Nambiar, PNAS, 1993. 90(3): p. 838-842; J. Martin Scholtz, Biopolymers, 1991. 31(13): p. 1463-1470; Lawless, M. K., et al., Biochemistry, 1996. 35(42): p. 13697-13708) or using, for example, the Aviv machine using CDNN software developed by Brohm in order to deduce five different secondary structure fractions (helix, parallel and antiparallel beta-sheet, beta-turn and random coil). Protein Engineering, 1992. 5(3); p. 191-195
In order to evaluate secondary structure improvements of hydrocarbon-stapled peptides, we record and analyze circular dichroism (CD) spectra on an Aviv Biomedical spectrometer (model 410), as described above. […] The CD spectra are initially plotted as wavelength versus millidegree. […] After conversion to mean residue ellipticity, percent α-helicity can be calculated using the equation, % helicity=100×[θ]222/^max[θ]222, where ^max[θ]222=−40,000×[1−(2.5/number of amino acid residues)]. We also employ the curve-fitting CDDN software that is bundled with our spectrometer to calculate the relative fractions of secondary structure including α-helix, parallel and antiparallel β-sheet, β-turn and random coil.

chymotrypsin = molecular target: T1, chymotrypsin (Bos taurus, UniProt P00766); assay: Protease resistance assay, chymotrypsin (LC/MS); type: in vitro ADME; conditions: pH 7.4, 0.5 chymotrypsin, peptide 25 μM
T1 construct: purchased Sigma
Method: The DAD signal was set to 280 nm with an 8 nm bandwidth and MSD set to scan mode with one channel at (M+2H)/2, +1 mass units and the other at (M+3H)/3, +1 mass units. Integration of each MSD signal yielded areas under the curve of >10^8 counts. Reaction samples were composed of 5 μL peptide in DMSO (1 mM stock) and 195 μL of buffer consisting of 50 mM phosphate buffer pH 7.4 containing 2 mM CaCl2. Upon injection of the 0 hr time point sample, 2 μL of 50 ng/μL chymotrypsin (Sigma) was added and the amount of intact peptide quantitated by serial injection over time. An internal control of acetylated tryptophan carboxamide at a concentration of 100 μM was used to normalize each MSD data point. A plot of MSD area versus time yielded an exponential decay curve and half-lives were determined by nonlinear regression analysis using Prism software (GraphPad).

pepsin = assay: Protease resistance assay, pepsin at pH 2; conditions: pepsin at 0.5 ng/μL, peptide 25 μM, acidic conditions
Method: The DAD signal was set to 280 nm with an 8 nm bandwidth and MSD set to scan mode with one channel at (M+2H)/2, +1 mass units and the other at (M+3H)/3, +1 mass units. […] Reaction samples were composed of 5 μL peptide in DMSO (1 mM stock) and 195 μL of buffer consisting of 50 mM phosphate buffer pH 7.4 containing 2 mM CaCl2. Upon injection of the 0 hr time point sample, 2 μL of 50 ng/μL chymotrypsin (Sigma) was added and the amount of intact peptide quantitated by serial injection over time. An internal control of acetylated tryptophan carboxamide at a concentration of 100 μM was used to normalize each MSD data point. A plot of MSD area versus time yielded an exponential decay curve and half-lives were determined by nonlinear regression analysis using Prism software (GraphPad). The assay was also performed using trypsin and pepsin in their appropriate buffer conditions.

Chymotrypsin, pH 7 = assay: Chymotrypsin, pH 7
From the text: Table printed on a drawing sheet, FIG. 17D
Title: Chymotrypsin, pH 7
First reader's note: The table also serves as the legend of the plot below it (fraction intact over time); the plot symbols before the compound names are left out.

## FITC-SAH-gp41(626-662)(A, F): FITC-labeled doubly stapled SAH-gp41(626-662)(A, F) ({FITC}-LTWAEWDAEINNYTSLIHSLIEESQNQAEKNAQELLE; not fully specified (bridges); also: doubly stapled, positions not given here)
[1]
  higher-order complex formation with doubly-mutant HR1 peptides: formed a higher-order complex
[1]; compared to FITC-T649v, densitometric analyses
  fold enhancement in binding activity: up to 2 fold

## enfuvirtide [listing 1 of 5 here]
[2]
  % helicity at pH 2: 57%
  % helicity at pH 7: 30%

## unstapled counterpart: unstapled 20-mer truncation of T649v, residues 626-645 ([Nle]TW[Nle]EWDREINNYTSLIHSL) [reference compound]
[2]; comparative CD spectra, 20-mer residues 626-645
  α-helical content: 20%

## CCCC[C@H](NC(C)=O)C(=O)N[C@H](C(=O)N[C@@H](Cc1c[nH]c2ccccc12)C(=O)N[C@@H](CCCC)C(=O)N[C@@H](CCC(=O)O)C(=O)N[C@@H](Cc1c[nH]c2ccccc12)C(=O)N[C@@H](CC(=O)O)C(=O)N[C@@H](CCCNC(=N)N)C(=O)N[C@@H](CCC(=O)O)C(=O)N[C@H](C(=O)N[C@@]1(C)CCCC=CCCC[C@@](C)(C(=O)N[C@@H](CC(C)C)C(=O)N[C@H](C(=O)N[C@@H](Cc2c[nH]cn2)C(=O)N[C@@H](CO)C(=O)N[C@@H](CC(C)C)C(=O)N[C@H](C(=O)N[C@@H](CCC(=O)O)C(=O)N[C@@H](CCC(=O)O)C(=O)N[C@@H](CO)C(=O)N[C@@H](CCC(N)=O)C(=O)N[C@@H](CC(N)=O)C(=O)N[C@@H](CCC(N)=O)C(=O)N[C@@]2(C)CCCC=CCCC[C@@](C)(C(=O)N[C@@H](CCC(N)=O)C(=O)N[C@@H](CCC(=O)O)C(=O)N[C@@H](CC(C)C)C(=O)N[C@@H](CC(C)C)C(=O)N[C@@H](CCC(=O)O)C(N)=O)NC(=O)[C@H](CC(N)=O)NC(=O)[C@H](CCCCN)NC(=O)[C@H](CCC(=O)O)NC2=O)[C@@H](C)CC)[C@@H](C)CC)NC(=O)[C@H]([C@@H](C)O)NC(=O)[C@H](Cc2ccc(O)cc2)NC(=O)[C@H](CC(N)=O)NC1=O)[C@@H](C)CC)[C@@H](C)O [SAH-gp41(626-662)(C, F)] (Ac-[Nle]TW[Nle]EWDREI[S5]NYT[S5]LIHSLIEESQNQ[S5]EKN[S5]QELLE-NH2; staple 11-15, 28-32)
chymotrypsin
  Half-Life: 8.23 h
[2]
  % helicity at pH 2: 55%
  % helicity at pH 7: 41%

## enfuvirtide [listing 2 of 5 here]
pepsin
  Half-life (minutes), pepsin: 920 min

## enfuvirtide [listing 3 of 5 here]
[2]
  % helicity at pH 2: 66%
  % helicity at pH 7: 26%

## enfuvirtide [listing 4 of 5 here]
Chymotrypsin, pH 7
  Half-Life: 0.417 h
pepsin
  Half-life (minutes), pepsin: 3 min
[2]
  % helicity at pH 2: 79%
  % helicity at pH 7: 23%

## CCCC[C@H](NC(C)=O)C(=O)N[C@H](C(=O)N[C@@H](Cc1c[nH]c2ccccc12)C(=O)N[C@@H](CCCC)C(=O)N[C@@H](CCC(=O)O)C(=O)N[C@@H](Cc1c[nH]c2ccccc12)C(=O)N[C@@H](CC(=O)O)C(=O)N[C@@H](CCCNC(=N)N)C(=O)N[C@@H](CCC(=O)O)C(=O)N[C@H](C(=O)N[C@@H](CC(N)=O)C(=O)N[C@@H](CC(N)=O)C(=O)N[C@@H](Cc1ccc(O)cc1)C(=O)N[C@H](C(=O)N[C@@]1(C)CCCC=CCCC[C@@](C)(C(=O)N[C@@H](CC(C)C)C(=O)N[C@H](C(=O)N[C@@H](CCC(=O)O)C(=O)N[C@@H](CCC(=O)O)C(=O)N[C@@H](CO)C(=O)N[C@@H](CCC(N)=O)C(=O)N[C@@H](CC(N)=O)C(=O)N[C@@H](CCC(N)=O)C(=O)N[C@@]2(C)CCCC=CCCC[C@@](C)(C(=O)N[C@@H](CCC(N)=O)C(=O)N[C@@H](CCC(=O)O)C(=O)N[C@@H](CC(C)C)C(=O)N[C@@H](CC(C)C)C(=O)N[C@@H](CCC(=O)O)C(N)=O)NC(=O)[C@H](CC(N)=O)NC(=O)[C@H](CCCCN)NC(=O)[C@H](CCC(=O)O)NC2=O)[C@@H](C)CC)NC(=O)[C@H](Cc2c[nH]cn2)NC(=O)[C@H]([C@@H](C)CC)NC(=O)[C@H](CC(C)C)NC1=O)[C@@H](C)O)[C@@H](C)CC)[C@@H](C)O [SAH-gp41(626-662)(D, F)] (Ac-[Nle]TW[Nle]EWDREINNYT[S5]LIH[S5]LIEESQNQ[S5]EKN[S5]QELLE-NH2; staple 15-19, 28-32)
chymotrypsin
  Half-Life: 3.02 h

## enfuvirtide [listing 5 of 5 here]
Chymotrypsin, pH 7
  Half-Life: 1.67 h
pepsin
  Half-life (minutes), pepsin: 227 min
[2]
  % helicity at pH 2: 61%
  % helicity at pH 7: 48%

## Enfuvirtide
Chymotrypsin, pH 7
  Half-Life: 0.2 h

## FITC-T649v: FITC-labeled T649v ({FITC}-LTWLEWDREINNYTSLIHSLIEESQNQQEKNEQELLE) [reference compound]
[1]
  higher-order complex formation with doubly-mutant HR1 peptides: formed a higher-order complex

## FITC-labeled enfuvirtide: FITC-labeled enfuvirtide [reference compound]
[1]
  higher-order complex formation with doubly-mutant HR1 peptides: no interactions
